# Results from patent publication US12030877B2, “Prostaglandin E synthase inhibitors and methods for utilizing the same” (University of Kentucky Research Foundation, priority 2016, dated 2024).
# Read-outs that look alike come from different tables or passages of the source.
# Columns and labels:
# [1] = biological target: T1, mPGES-1 Mouse enzyme (Mus musculus, UniProt Q9JM51); test: mPGES-1 enzyme activity assay (PGE2 enzyme immunoassay), mouse enzyme; format: biochemical; conditions: for IC50: recombinant microsomal enzyme, means ± SD, triplicate; for inhibition at 10 µM: compound at a concentration of 10 μM, read-out: % inhibition of the compound against mPGES-1, Mouse enzyme
# T1 construct: made in house; host or cells: FreeStyle 293-F cells, crude microsomal preparation
# T1 sequence (Q9JM51 1-153): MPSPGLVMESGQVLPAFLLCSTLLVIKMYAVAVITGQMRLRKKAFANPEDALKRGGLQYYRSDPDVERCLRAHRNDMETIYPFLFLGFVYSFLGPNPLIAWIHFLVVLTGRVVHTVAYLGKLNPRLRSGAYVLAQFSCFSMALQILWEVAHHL
# Protocol: (§1) Studies were conducted to characterize the inhibitory activity against recombinant mPGES-1 of the compounds synthesized in accordance with Examples 1-4, and disclosed herein.
# (§2) Briefly, FreeStyle 293-F cells were cultured following manufacturer's manual in FreeStyle 293 expression medium on orbit rotate shaker in 8% CO2 incubator at 37° C. Cells were transfected with 1.5 μg/mL of mPGES-1/pcDNA3 construct using FreeStyle Max reagent at a cell density of 1×10^6 for 2 days. Transfected cells were collected, washed, and sonicated in TSES buffer (15 mM Tris-HCl, pH 8.0 plus 0.25 M sucrose, 0.1 mM EDTA and 1 mM DTT) on ice. The broken cells were first centrifuged at 12,500×g for 10 min. The supernatant was further centrifuged at 105,000×g for 1 hr at 4° C. The pellet was washed and homogenized in PBS buffer. The crude microsomal mPGES-1 preparation was aliquoted and stored at −80° C. The crude protein concentration was 8 mg/mL.
# (§3) The enzyme activity assays were performed on ice in 1.5 ml microfuge tubes by using the expressed mPGES-1. The reaction mixture contained: 0.2 M Na2HPO4/NaH2PO4, pH 7.2, 10 μL; 0.1 M GSH, 2.5 μL; diluted microsomal enzyme (80 μg/mL), 1 μL; PGH2 (0.31 mM in DMF), 5 μL; 1 μL inhibitor; and H2O in a final reaction volume of 100 μL. PGH2 was stored in dry ice and used to initiate the reaction.
# (§4) Compounds were incubated with the enzyme for 15 min at room temperature before the addition of cold PGH2 (1 μM final) to initiate the enzyme reaction. After 30 s, 10 μL of SnCl2 (40 mg/mL) in ethanol was added to stop the reaction. The nonenzymatic conversion of PGH2 to PGE2 was performed in the same buffer devoid of enzyme. The reaction mixture was placed on ice until PGE2 production was determined by the PGE2 enzyme immunoassay as described earlier. IC50 values of the inhibitors were calculated by using the GraphPad Prism 4.0 program. The results are set forth in the tables provided in Examples 7-10.
# [2] = biological target: T2, mPGES-1 (Homo sapiens, UniProt O14684); test: mPGES-1 enzyme activity assay (PGE2 enzyme immunoassay), human enzyme; format: biochemical; design: made in house; host or cells: FreeStyle 293-F cells, crude microsomal preparation; conditions: recombinant microsomal enzyme, means ± SD, triplicate
# T2 sequence (O14684 1-152): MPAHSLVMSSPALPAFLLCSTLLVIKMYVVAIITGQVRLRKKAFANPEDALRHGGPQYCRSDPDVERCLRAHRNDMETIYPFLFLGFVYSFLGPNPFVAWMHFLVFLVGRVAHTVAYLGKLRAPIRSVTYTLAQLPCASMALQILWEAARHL
# Protocol: as §1, §2, §3, §4
# [3] = read-out: IC50 against mPGES-1, Mouse enzyme
# [4] = read-out: IC50 against mPGES-1, Human enzyme
# [5] = IC50 against mPGES-1, Human enzyme
# [6] = IC50 against mPGES-1, Mouse enzyme
Structure (SMILES),"IC50 [1, 3]","IC50 [2, 4]",inhibition at 10 µM [1],"IC50 [2, 5]","IC50 [1, 6]"
O=C(O)CN1C(=O)S/C(=C2\C(=O)N(CCCc3ccccc3)c3ccccc32)C1=O [II-04],747 ± 163 nM,2400 ± 132 nM,–,–,–
CCCCCCOc1ccc(-c2nn(-c3ccc(Cl)cc3)cc2C=C2C(=O)NC(=O)NC2=O)cc1 [VI-04],–,285 ± 65 nM,46%,–,–
Cc1cc(C=C2C(=O)NC(=O)NC2=O)ccc1OCCCCC1CCCCC1 [Compound I-04],–,–,25%,82 ± 10 nM,–
O=C1NC(=O)C(=Cc2ccc(OCCCC3CCCCC3)c([N+](=O)[O-])c2)C(=O)N1 [Compound I-26],–,–,–,156 ± 30 nM,373 ± 51 nM
O=C1NC(=O)C(=Cc2cc(Br)ccc2OCCCCC2CCCCC2)C(=O)N1 [Compound I-14],–,–,38%,96 ± 14 nM,–
CCCCCCCCCCOc1ccc(-c2nn(-c3ccccc3)cc2C=C2C(=O)NC(=O)NC2=O)cc1 [VI-07],–,–,21%,375 ± 127 nM,–
CCCCCCOc1ccc(-c2nn(-c3ccc(Cl)cc3)cc2/C=C(/C#N)C(=O)O)cc1 [VII-15],–,83 ± 30 nM,48%,–,–
O=C1NC(=O)C(=Cc2ccc(OCCCOc3ccccc3)c(Cl)c2)C(=O)N1 [Compound I-34],–,–,–,349 ± 40 nM,8130 ± 1010 nM
CCCCCCCCCCCCCCCCCCOc1c(Br)cc(C=C(C#N)C#N)cc1OC [Compound V-20],270 ± 64 nM,50 ± 9 nM,–,–,–
O=C1NC(=O)C(=Cc2ccc(OCCCCC3CCCCC3)c(O)c2)C(=O)N1 [Compound I-05],–,–,–,116 ± 17 nM,2900 ± 293 nM
CCCCCOc1ccc(C=C2C(=O)NC(=O)NC2=O)cc1[N+](=O)[O-] [Compound I-39],–,–,–,460 ± 64 nM,6310 ± 1140 nM
O=C1NC(=S)NC(=O)C1=Cc1cn(-c2ccccc2)nc1-c1ccc(OCc2ccccc2)cc1 [VI-18],–,–,25%,797 ± 160 nM,–
O=C(O)CN1C(=O)/C(=C2\SC(=O)N(CCCCc3ccccc3)C2=O)c2ccccc21 [II-31],–,962 ± 159 nM,64%,–,–
CCCCOc1ccc(-c2nn(-c3ccc(Cl)cc3)cc2/C=C(/C#N)C(=O)O)cc1 [VII-14],–,190 ± 68 nM,30%,–,–
O=C(O)CN1C(=O)S/C(=C2\C(=O)N(CCCCC3CCCCC3)c3ccc(-c4ccccc4)cc32)C1=O [II-26],1130 ± 244 nM,13 ± 3 nM,–,–,–
O=C(O)CN1C(=O)S/C(=C2\C(=O)N(Cc3ccccc3)c3ccccc32)C1=O [II-01],–,817 ± 79 nM,10%,–,–
O=C(O)CN1C(=O)S/C(=C2\C(=O)N(CC3CCCCC3)c3ccc(-c4ccc(-c5ccccc5)cc4)cc32)C1=O [II-19],1020 ± 162 nM,154 ± 20 nM,–,–,–
CCCCCCCCOc1ccc(-c2nn(-c3ccc(Cl)cc3)cc2/C=C(/C#N)C(=O)O)cc1 [VII-17],–,90 ± 15 nM,29%,–,–
O=C1NC(=O)C(=Cc2ccc(OCCCCC3CCCCC3)cc2)C(=O)N1 [Compound I-01],–,622 ± 121 nM,–,–,7080 ± 627 nM
CCCCCCCCOc1ccc(-c2nn(-c3ccc(Cl)cc3)cc2C=C2C(=O)NC(=S)NC2=O)cc1 [VI-15],–,92 ± 19 nM,–,–,316 ± 30 nM
O=C1NC(=S)S/C1=C1\C(=O)N(CCCC2CCCCC2)c2ccccc21 [II-29],–,1260 ± 335 nM,29%,–,–
O=C(O)CN1C(=O)S/C(=C2\C(=O)N(CCCCc3ccccc3)c3ccccc32)C1=O [II-05],–,963 ± 87 nM,61%,–,–
CCCCCCCOc1ccc(C=C(C#N)C#N)cc1[N+](=O)[O-] [Compound V-05],776 ± 217 nM,135 ± 16 nM,–,–,–
O=C(O)CN1C(=O)S/C(=C2\C(=O)N(CCCOc3ccccc3)c3ccccc32)C1=O [II-10],–,805 ± 100 nM,41%,–,–
CN1C(=O)C(=Cc2ccc(OCCCCC3CCCCC3)c(Cl)c2)C(=O)N(C)C1=O [Compound I-18],–,–,8%,272 ± 30 nM,–
O=C1NC(=O)C(=Cc2ccc(OCCCOc3ccc(-c4ccccc4)cc3)c(Cl)c2)C(=O)N1 [Compound I-35],–,–,17%,337 ± 34 nM,–
CCCCCCCCCCOc1ccc(/C=C(\C#N)C(=O)O)cc1OC [Compound V-27],390 ± 84 nM,51 ± 10 nM,–,–,–
